Assay results reported in article PMC12626088 (RSC Advances, 2025).
In brackets after ≈: the same amount, converted by molar mass.

Assays:
[1] = target: α-glucosidase; assay: α-glucosidase inhibition assay; assay type: biochemical; settings: sample described as 'SR (compound 4a) methanolic extract'
[2] = target: α-amylase; assay: α-amylase inhibition assay; assay type: biochemical; settings: sample described as 'SR (compound 4a) methanolic extract'

SMILES: C(#CC(c1ccccc1)N1CCOCC1)c1ccccc1 (centres unmarked) [4a, 4-(1,3-diphenylprop-2-yn-1-yl)morpholine]
- IC50 [1]: 111.42 µg/mL (≈ 402 µM)
- IC50 [2]: 112.98 µg/mL (≈ 407 µM)
